We go through 22 compounds from patent US11685746B2, “Heteroaryl compounds for treating Huntington's disease” (PTC THERAPEUTICS, INC., priority 2018, dated 2023).

Some results are limits rather than exact numbers.

This assay deals with Endogenous Huntingtin Protein. Kind of assay: Endogenous Huntingtin Protein Assay (MSD plates, MW1 or MAB2166 capture antibody). Particulars: Table 1. The assay is classed as cell-based. On the procedure: Endogenous Huntingtin Protein Assay
Meso Scale Discovery (MSD) 96-well or 384-well plates were coated overnight at 4° C. with MW1 (expanded polyglutamine) or MAB2166 monoclonal antibody (for capture) at a concentration of 1 μg/mL in PBS (30 μL per well). Plates were then washed three times with 300 μL wash buffer (0.05% Tween-20 in PBS) and blocked (100 μL blocking buffer; 5% BSA in PBS) for 4-5 hours at room temperature with rotational shaking and then washed three times with wash buffer.
Samples (25 μL) were transferred to the antibody-coated MSD plate and incubated overnight at 4° C. After removal of the lysates, the plate was washed three times with wash buffer, and 25 μL of #5656S (Cell signaling; rabbit monoclonal) secondary antibody (diluted to 0.25 μg/mL in 0.05% Tween-20 in blocking buffer) was added to each well and incubated with shaking for 1 Hour at room temperature. Following incubation with the secondary antibody, the wells were rinsed with wash buffer after which 25 μL of goat anti-rabbit SULFO TAG secondary detection antibody (required aspect of the MSD system) (diluted to 0.25 μg/mL in 0.05% Tween-20 in blocking buffer) was added to each well and incubated with shaking for 1 hour at room temperature. After rinsing three times with wash buffer, 150 μL of read buffer T with surfactant (MSD) were added to each empty well, and the plate was imaged on a SI 6000 imager (MSD) according to manufacturers' instructions provided for 96- or 384-well plates.

Broadly, the IC50 is the midpoint of a concentration-inhibition curve. `CN(c1nc2sc(-c3ncc(-c4cn[nH]c4)cc3O)nc2s1)[C@@H]1CCNC1` [Compound 56, 2-(5-{methyl[(3R)-pyrrolidin-3-yl]amino}[1,3]thiazolo[5,4-d][1,3]thiazol-2-yl)-5-(1H-pyrazol-4-yl)pyridin-3-ol]: the IC50 is at most 100 nM.

`CN(c1nc2sc(-c3ncc(Br)cc3O)nc2s1)C1CCNCC1` [Compound 57, 5-bromo-2-{5-[methyl(piperidin-4-yl)amino][1,3]thiazolo[5,4-d][1,3]thiazol-2-yl}pyridin-3-ol] yielded an IC50 of 1000 to 3000 nM. In turn, `[2H]C([2H])([2H])n1cc(-c2ccc(-c3nc4sc(N(C)C5CCN(C)CC5)nc4s3)c(O)c2)cn1` [Compound 58, 2-{5-[methyl(1-methylpiperidin-4-yl)amino][1,3]thiazolo[5,4-d][1,3]thiazol-2-yl}-5-[1-(^2H3)methyl-1H-pyrazol-4-yl]phenol] had an IC50 of at most 100 nM. Take `CCN1CCC(N(C)c2nc3sc(-c4ccc(-c5cnn(C)c5)cc4O)nc3s2)CC1` [Compound 59, 2-{5-[(1-ethylpiperidin-4-yl)(methyl)amino][1,3]thiazolo[5,4-d][1,3]thiazol-2-yl}-5-(1-methyl-1H-pyrazol-4-yl)phenol]: the IC50 is at most 100 nM.

Turning to `CN(c1nc2sc(-c3ncc(-n4ccnc4)cc3O)nc2s1)C1CCNCC1` [Compound 60, 5-(1H-imidazol-1-yl)-2-{5-[methyl(piperidin-4-yl)amino][1,3]thiazolo[5,4-d][1,3]thiazol-2-yl}pyridin-3-ol], the IC50 was in the range of 1000 to 3000 nM. To `CCN(c1nc2sc(-c3ncc(-c4cn[nH]c4)cc3O)nc2s1)C1CCNCC1` [Compound 61, 2-{5-[ethyl(piperidin-4-yl)amino][1,3]thiazolo[5,4-d][1,3]thiazol-2-yl}-5-(1H-pyrazol-4-yl)pyridin-3-ol] belongs at most 100 nM; to `CN(c1nc2sc(-c3ncc(-n4cc(F)cn4)cc3O)nc2s1)C1CCNCC1` [Compound 62, 5-(4-fluoropyrazol-1-yl)-2-[5-[methyl(4-piperidyl)amino]thiazolo[5,4-d]thiazol-2-yl]pyridin-3-ol], 1000 to 3000 nM. In turn, `Cc1cnn(-c2cnc(-c3nc4sc(N(C)C5CCNCC5)nc4s3)c(O)c2)c1` [Compound 63, 5-(4-methylpyrazol-1-yl)-2-[5-[methyl(4-piperidyl)amino]thiazolo[5,4-d]thiazol-2-yl]pyridin-3-ol] came in with an IC50 of 3000 to 9000 nM. Compound `CN(c1nc2sc(-c3ncc(-c4cncs4)cc3O)nc2s1)C1CCNCC1` [Compound 64, 5-(thiazol-5-yl)-2-{5-[methyl(piperidin-4-yl)amino][1,3]thiazolo[5,4-d][1,3]thiazol-2-yl}pyridin-3-ol] came in with an IC50 of 100 to 500 nM.

On to `COc1cc(-c2cnc(-c3nc4sc(N(C)[C@H]5C[C@]6(C)CC[C@](C)(C5)N6)nc4s3)cn2)ncn1` [Compound 65, N-[(1R,3s,5S)-1,5-dimethyl-8-azabicyclo[3.2.1]octan-3-yl]-5-[5-(6-methoxypyrimidin-4-yl)pyrazin-2-yl]-N-methyl[1,3]thiazolo[5,4-d][1,3]thiazol-2-amine], for which the IC50 was 100 to 500 nM. The compound `C[C@H]1C[C@H](N(C)c2nc3sc(-c4cnc(-n5ccnc5)cn4)nc3s2)CCN1` [Compound 66, 5-[5-(1H-imidazol-1-yl)pyrazin-2-yl]-N-methyl-N-[(2S,4R)-2-methylpiperidin-4-yl][1,3]thiazolo[5,4-d][1,3]thiazol-2-amine] returned an IC50 of at most 100 nM. `Cc1nccn1-c1cnc(-c2nc3sc(N(C)[C@H]4C[C@]5(C)CC[C@](C)(C4)N5)nc3s2)cn1` [Compound 67, N-[(1R,3s,5S)-1,5-dimethyl-8-azabicyclo[3.2.1]octan-3-yl]-N-methyl-5-[5-(2-methyl-1H-imidazol-1-yl)pyrazin-2-yl][1,3]thiazolo[5,4-d][1,3]thiazol-2-amine] gave an IC50 of at most 100 nM. In the case of `C[C@@H]1C[C@@H](Oc2nc3sc(-c4ccc(-c5cn[nH]c5)c5nc[nH]c45)nc3s2)CCN1` [Compound 68, 7-(5-{[(2R,4S)-2-methylpiperidin-4-yl]oxy}[1,3]thiazolo[5,4-d][1,3]thiazol-2-yl)-4-(1H-pyrazol-4-yl)-1H-benzimidazole], the IC50 was at most 100 nM.

Take `COc1cc(-c2cnc(-c3nc4sc(N(C)[C@H]5C[C@]6(C)CC[C@](C)(C5)N6)nc4s3)cn2)ccn1` [Compound 69, N-[(1R,3s,5S)-1,5-dimethyl-8-azabicyclo[3.2.1]octan-3-yl]-5-[5-(2-methoxypyridin-4-yl)pyrazin-2-yl]-N-methyl[1,3]thiazolo[5,4-d][1,3]thiazol-2-amine]: the IC50 is 100 to 500 nM. Regarding `CN(c1nc2sc(-c3cnc(-n4cncn4)cn3)nc2s1)[C@H]1C[C@]2(C)CC[C@](C)(C1)N2` [Compound 70, N-[(1R,3s,5S)-1,5-dimethyl-8-azabicyclo[3.2.1]octan-3-yl]-N-methyl-5-[5-(1H-1,2,4-triazol-1-yl)pyrazin-2-yl][1,3]thiazolo[5,4-d][1,3]thiazol-2-amine], the IC50 was at most 100 nM. In the case of `Cc1n[nH]c(C)c1-c1cnc(-c2nc3sc(N(C)[C@H]4C[C@]5(C)CC[C@](C)(C4)N5)nc3s2)cn1` [Compound 73, N-[(1R,3s,5S)-1,5-dimethyl-8-azabicyclo[3.2.1]octan-3-yl]-5-[5-(3,5-dimethyl-1H-pyrazol-4-yl)pyrazin-2-yl]-N-methyl[1,3]thiazolo[5,4-d][1,3]thiazol-2-amine] it was 1000 to 3000 nM. In the case of `C[C@@H]1C[C@@H](Oc2nc3sc(-c4ncc(-c5cn[nH]c5)c5cn[nH]c45)nc3s2)CCN1` [Compound 74, 7-(5-{[(2R,4S)-2-methylpiperidin-4-yl]oxy}[1,3]thiazolo[5,4-d][1,3]thiazol-2-yl)-4-(1H-pyrazol-4-yl)-1H-pyrazolo[3,4-c]pyridine] it was at most 100 nM; in that of `C[C@H]1C[C@H](N(C)c2nc3sc(-c4ncc(-c5cn[nH]c5)c5cc[nH]c45)nc3s2)CCN1` [Compound 75, N-methyl-N-[(2S,4R)-2-methylpiperidin-4-yl]-5-[4-(1H-pyrazol-4-yl)-1H-pyrrolo[2,3-c]pyridin-7-yl][1,3]thiazolo[5,4-d][1,3]thiazol-2-amine], at most 100 nM; in that of `C[C@@H]1C[C@@H](Oc2nc3sc(-c4ncc(-c5cn[nH]c5)c5cc[nH]c45)nc3s2)CCN1` [Compound 76, 7-(5-{[(2R,4S)-2-methylpiperidin-4-yl]oxy}[1,3]thiazolo[5,4-d][1,3]thiazol-2-yl)-4-(1H-pyrazol-4-yl)-1H-pyrrolo[2,3-c]pyridine], at most 100 nM. Turning to `CC1(C)CC(Oc2nc3sc(-c4ncc(-c5cn[nH]c5)c5cc[nH]c45)nc3s2)CCN1` (stereo not shown) [Compound 77, 7-{5-[(2,2-dimethylpiperidin-4-yl)oxy][1,3]thiazolo[5,4-d][1,3]thiazol-2-yl}-4-(1H-pyrazol-4-yl)-1H-pyrrolo[2,3-c]pyridine], the half-maximal inhibitory concentration (IC50) was at most 100 nM. For `C[C@@H]1C[C@@H](Oc2nc3sc(-c4ccc(-c5cn[nH]c5)c5cn[nH]c45)nc3s2)CCN1` [Compound 78, 7-(5-{[(2R,4S)-2-methylpiperidin-4-yl]oxy}[1,3]thiazolo[5,4-d][1,3]thiazol-2-yl)-4-(1H-pyrazol-4-yl)-1H-indazole], the IC50 was at most 100 nM. `CN(c1nc2sc(-c3ncc(-c4cn[nH]c4)nn3)nc2s1)[C@H]1C[C@]2(C)CC[C@](C)(C1)N2` [Compound 79, N-[(1R,3s,5S)-1,5-dimethyl-8-azabicyclo[3.2.1]octan-3-yl]-N-methyl-5-[6-(1H-pyrazol-4-yl)-1,2,4-triazin-3-yl][1,3]thiazolo[5,4-d][1,3]thiazol-2-amine] showed an IC50 of at most 100 nM.
